Measurements from article PMC7725506, “Functional Diversification of SRSF Protein Kinase to Control Ubiquitin-Dependent Neurodevelopmental Signaling” (Developmental Cell, 2020).

Experiments:
SRPK1 = SRPK1 (Homo sapiens, UniProt Q96SB4); type: biochemical; details: in vitro, RNF12 phospho-Ser214 immunoblot quantified; read-out: IC50, inhibition of RNF12 phosphorylation by SRPK1
Method: (§1) Cells were lysed, and 1.5 mg of protein immunoprecipitated with 2 μg of SRPK1 or SRPK2 antibodies (BD Biosciences). Immunoprecipitates were then washed with lysis buffer supplemented with 500 mM NaCl and half of the sample was resuspended in loading buffer. The remainder was subjected to in vitro phosphorylation assay containing 0.5 μg RNF12 and 2 mM ATP in kinase buffer (50 mM Tris-HCl [pH 7.5], 0.1 mM EGTA, 10 mM MgCl2, 2 mM DTT) and incubated at 30°C for 30 min. […] For radioactive in vitro kinase assays, reactions were supplemented with 1 μCi γ-^32P ATP. Reactions were incubated at 30°C for 30 min in presence or absence of inhibitor as indicated and samples subjected to polyacrylamide electrophoresis and immunoblot or Coomassie blue staining and signal detected via ECL, infrared detection or autoradiography.
(§2) Supplemental Figure Legends
(§3) (Related to Figure 1). (A) Wild-type (WT) mESCs were analysed for protein copy number by absolute quantitative proteomics. […]
(§4) Data are represented as mean ± S.E.M. (n=3). […] ND = not detected. (B) Inhibition of RNF12 phosphorylation in vitro by SRPK1 and SRPK2 in the presence of varying concentrations of the indicated SRPK inhibitors was determined by immunoblotting for RNF12 phospho-Ser214 (Left). […] Immunoblots were quantified to generate SRPK inhibitor dose-response curves for inhibition of RNF12 phosphorylation by SRPK1 and SRPK2 in vitro (Right). […]

RNF12 SR-motif = RNF12 SR-motif phosphorylation in mouse cortical neurons by phos-tag immunoblotting; type: cell-based; details: mature mouse cortical neurons cultured for 21 days, 10 μM, 4 h
Method: Figure 7 The SRPK-RNF12 Signaling Pathway Operates in Neurons (A) Primary cortical neurons isolated from E16.5 C57BL6 mice were cultured for the indicated number of days in vitro (DIV) and RNF12, SRPK1, and SRPK2, synaptophysin and actin levels analyzed via immunoblotting alongside the indicated mESC lines. (B) Cortical neurons were cultured for 21 days and treated with 10 μM MG132 and protein levels analyzed by immunoprecipitation and immunoblotting (REX1) and immunoblotting (RNF12 and ERK1/2). (C) Cortical neurons were cultured in vitro for the indicated number of days (DIV) and RNF12 and MAP2 neuron specific marker analyzed by immunofluorescence. Scale bar: 20 μm. (D) RNF12 SR-motif phosphorylation during in vitro mouse cortical neuron maturation was analyzed via phos-tag immunoblotting for RNF12. […] Synaptophysin and actin levels were determined by immunoblotting. […] Synaptophysin and actin levels were determined by immunoblotting. (F) The SRPK-RNF12-REX1 signaling pathway regulates neural gene expression and is disrupted in intellectual disability disorders. SRPK phosphorylates the RNF12 SR-motif to promote REX1 ubiquitylation and proteasomal degradation, which acts as a “brake” for neural gene expression in self-renewing pluripotent stem cells. In intellectual disability, inactivating mutations in SRPKs or RNF12 lead to REX1 accumulation and aberrant induction of neural genes. […]

SRPK2 [1] = biological target: SRPK2 (Homo sapiens, UniProt P78362); test: Inhibition of RNF12 phosphorylation in vitro by SRPK2 (phospho-Ser214 immunoblot, dose-response); type: biochemical; details: only this inhibitor of SRPIN340, SPHINX31, SRPKIN-1
Method: as §1, §2, §3, §4

SRPK2 [2] = biological target: T1, SRPK2 (Mus musculus, UniProt O54781); test: SRPK2 immunoprecipitation kinase assay from inhibitor-treated mESCs with RNF12 as substrate; type: cell-based; details: mESCs pre-treated with 10 μM for 4 h
T1 construct: endogenous in cells; host or cells: mESCs (CCE line)
Method: SRSF phosphorylation, SRPK1, SRPK2, and ERK1/2 levels were determined by immunoblotting. Expected positions of SRSFs that are not detected are shown in gray. Quantification of SRSF phosphorylation (Right). Data represented as mean ± SEM (n = 4). […] Neuro 2a is a control for exon 16b exclusion in differentiated cells (Bottom). Data represented as mean ± SEM (n = 3). […] Exon 16 inclusion: (^∗∗∗∗) p < 0.0001, Exon 16b inclusion: (^∗) p = 0.0164, p = 0.0485, and p = 0.0489 (left to right). Ratio exon 16b/16: (^∗∗∗∗) p < 0.0001, (^∗∗∗) p = 0.0003. (C) SRPK substrates predicted using ScanProsite and grouped according to UniProt functions. (D) RNF12 phosphorylation sites detected by mass-spectrometry. LZL, leucine-zipper like; NLS, nuclear localization signal; NES, nuclear export signal; RING, RING E3 ubiquitin ligase catalytic domain. (E) CMGC family kinase copy numbers in mESCs determined by quantitative proteomics and represented using Kinoviewer. (F) CMGC kinase (200 mU) phosphorylation of the RNF12 SR-motif in vitro was determined by immunoblotting for RNF12 phospho-Ser214 and total RNF12. […] Normalized RNF12 Ser214 phosphorylation is shown below. Data represented as mean ± SEM (n = 3). […] RNF12 SR-motif phosphorylation was analyzed by immunoblotting for RNF12 phospho-Ser214 and RNF12. SRPK1 and SRPK2 levels are shown as a loading control, Related to Figure S1; Tables S1 and S2. […]

Sequence of SRPK2 (Homo sapiens, UniProt P78362) (P78362 1-699 isoform P78362-2): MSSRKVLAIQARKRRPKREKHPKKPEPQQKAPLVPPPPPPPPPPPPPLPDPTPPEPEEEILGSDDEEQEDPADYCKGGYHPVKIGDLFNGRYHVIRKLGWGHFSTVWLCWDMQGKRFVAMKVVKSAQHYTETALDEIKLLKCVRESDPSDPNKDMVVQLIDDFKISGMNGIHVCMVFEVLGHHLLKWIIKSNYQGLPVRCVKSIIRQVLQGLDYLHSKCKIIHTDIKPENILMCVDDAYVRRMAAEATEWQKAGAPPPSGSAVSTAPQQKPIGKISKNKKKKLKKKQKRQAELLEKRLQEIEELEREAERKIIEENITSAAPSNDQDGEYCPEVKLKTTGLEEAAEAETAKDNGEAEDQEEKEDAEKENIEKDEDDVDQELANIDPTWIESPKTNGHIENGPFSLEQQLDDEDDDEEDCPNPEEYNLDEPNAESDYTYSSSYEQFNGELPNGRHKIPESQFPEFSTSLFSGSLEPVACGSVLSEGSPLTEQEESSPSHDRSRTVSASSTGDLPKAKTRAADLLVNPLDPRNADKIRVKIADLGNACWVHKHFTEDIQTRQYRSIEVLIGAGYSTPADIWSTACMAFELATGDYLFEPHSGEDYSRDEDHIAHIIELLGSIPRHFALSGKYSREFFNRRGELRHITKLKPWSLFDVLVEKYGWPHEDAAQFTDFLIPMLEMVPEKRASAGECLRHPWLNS
T1 sequence (O54781 whole entry): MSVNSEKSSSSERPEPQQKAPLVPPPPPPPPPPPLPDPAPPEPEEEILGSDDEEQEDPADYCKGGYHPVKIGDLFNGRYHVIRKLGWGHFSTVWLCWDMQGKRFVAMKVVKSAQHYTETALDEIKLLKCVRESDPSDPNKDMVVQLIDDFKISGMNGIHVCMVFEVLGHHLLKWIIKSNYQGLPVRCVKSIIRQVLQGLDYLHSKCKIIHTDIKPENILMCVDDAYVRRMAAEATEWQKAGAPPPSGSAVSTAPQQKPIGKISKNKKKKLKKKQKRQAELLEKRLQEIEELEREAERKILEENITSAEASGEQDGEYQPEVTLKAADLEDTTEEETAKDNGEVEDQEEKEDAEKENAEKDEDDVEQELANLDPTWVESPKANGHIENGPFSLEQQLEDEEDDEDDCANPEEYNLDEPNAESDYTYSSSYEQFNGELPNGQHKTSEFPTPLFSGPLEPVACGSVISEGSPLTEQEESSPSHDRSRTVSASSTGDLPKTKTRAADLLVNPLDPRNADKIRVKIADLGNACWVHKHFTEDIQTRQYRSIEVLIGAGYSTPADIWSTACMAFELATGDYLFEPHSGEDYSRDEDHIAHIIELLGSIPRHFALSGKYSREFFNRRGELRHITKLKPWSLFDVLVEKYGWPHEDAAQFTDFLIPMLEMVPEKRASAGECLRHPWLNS
Sequence of SRPK1 (Q96SB4 whole entry): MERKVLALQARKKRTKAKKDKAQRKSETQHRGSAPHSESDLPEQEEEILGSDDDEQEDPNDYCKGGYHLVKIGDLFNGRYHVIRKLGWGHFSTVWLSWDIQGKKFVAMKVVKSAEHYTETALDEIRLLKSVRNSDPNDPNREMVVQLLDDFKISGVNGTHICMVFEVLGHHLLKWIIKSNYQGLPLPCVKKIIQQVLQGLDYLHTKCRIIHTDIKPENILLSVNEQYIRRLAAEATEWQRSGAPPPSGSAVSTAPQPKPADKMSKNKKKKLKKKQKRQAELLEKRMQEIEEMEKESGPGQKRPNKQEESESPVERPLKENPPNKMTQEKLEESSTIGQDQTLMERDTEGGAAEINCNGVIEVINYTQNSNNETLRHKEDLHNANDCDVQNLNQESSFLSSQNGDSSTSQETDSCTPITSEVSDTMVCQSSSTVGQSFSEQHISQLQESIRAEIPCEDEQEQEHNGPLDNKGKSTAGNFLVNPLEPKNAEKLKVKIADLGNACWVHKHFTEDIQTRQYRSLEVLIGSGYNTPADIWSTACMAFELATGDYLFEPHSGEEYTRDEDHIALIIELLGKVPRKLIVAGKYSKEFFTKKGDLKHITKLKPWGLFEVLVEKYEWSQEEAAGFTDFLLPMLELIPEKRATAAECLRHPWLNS

With `CCc1cc2c(cc1-c1cccc(S(=O)(=O)F)c1)C(C)(C)c1[nH]c3cc(C#N)ccc3c1C2=O` [SRPKIN-1] the IC50 (SRPK1) was 15.2 nM, the “RNF12 phosphorylation (phos-tag)” value (RNF12 SR-motif) was “suppressed RNF12 phosphorylation” and the “inhibition of SRPK2” value (SRPK2 [1]) was “potently inhibited”. The “inhibition of SRPK2 in vivo (ability of immunoprecipitates to phosphorylate RNF12)” value (SRPK2 [2]) was “potently inhibited”.
